Experimental findings from patent US20250213558A1, “T-TYPE CALCIUM CHANNEL MODULATORS COMPRISING A PIPERAZINE OR 1,4-DIAZEPANE CORE AND METHODS OF USE THEREOF” (Praxis Precision Medicines, Inc., priority 2022, published 2025) are described below.

Like-named read-outs stand apart in the source and are kept apart here.

Broadly, the IC50 is the concentration that inhibits the measured activity by half.

The target in the assay is T1, Human Cav3.1 calcium channel (Homo sapiens, UniProt O43497).
T1 construct: expressed in transfected cells; host or cells: HEK-293 natClytin/TASK1+Cav3.1 cell line
T1 sequence (O43497 whole entry): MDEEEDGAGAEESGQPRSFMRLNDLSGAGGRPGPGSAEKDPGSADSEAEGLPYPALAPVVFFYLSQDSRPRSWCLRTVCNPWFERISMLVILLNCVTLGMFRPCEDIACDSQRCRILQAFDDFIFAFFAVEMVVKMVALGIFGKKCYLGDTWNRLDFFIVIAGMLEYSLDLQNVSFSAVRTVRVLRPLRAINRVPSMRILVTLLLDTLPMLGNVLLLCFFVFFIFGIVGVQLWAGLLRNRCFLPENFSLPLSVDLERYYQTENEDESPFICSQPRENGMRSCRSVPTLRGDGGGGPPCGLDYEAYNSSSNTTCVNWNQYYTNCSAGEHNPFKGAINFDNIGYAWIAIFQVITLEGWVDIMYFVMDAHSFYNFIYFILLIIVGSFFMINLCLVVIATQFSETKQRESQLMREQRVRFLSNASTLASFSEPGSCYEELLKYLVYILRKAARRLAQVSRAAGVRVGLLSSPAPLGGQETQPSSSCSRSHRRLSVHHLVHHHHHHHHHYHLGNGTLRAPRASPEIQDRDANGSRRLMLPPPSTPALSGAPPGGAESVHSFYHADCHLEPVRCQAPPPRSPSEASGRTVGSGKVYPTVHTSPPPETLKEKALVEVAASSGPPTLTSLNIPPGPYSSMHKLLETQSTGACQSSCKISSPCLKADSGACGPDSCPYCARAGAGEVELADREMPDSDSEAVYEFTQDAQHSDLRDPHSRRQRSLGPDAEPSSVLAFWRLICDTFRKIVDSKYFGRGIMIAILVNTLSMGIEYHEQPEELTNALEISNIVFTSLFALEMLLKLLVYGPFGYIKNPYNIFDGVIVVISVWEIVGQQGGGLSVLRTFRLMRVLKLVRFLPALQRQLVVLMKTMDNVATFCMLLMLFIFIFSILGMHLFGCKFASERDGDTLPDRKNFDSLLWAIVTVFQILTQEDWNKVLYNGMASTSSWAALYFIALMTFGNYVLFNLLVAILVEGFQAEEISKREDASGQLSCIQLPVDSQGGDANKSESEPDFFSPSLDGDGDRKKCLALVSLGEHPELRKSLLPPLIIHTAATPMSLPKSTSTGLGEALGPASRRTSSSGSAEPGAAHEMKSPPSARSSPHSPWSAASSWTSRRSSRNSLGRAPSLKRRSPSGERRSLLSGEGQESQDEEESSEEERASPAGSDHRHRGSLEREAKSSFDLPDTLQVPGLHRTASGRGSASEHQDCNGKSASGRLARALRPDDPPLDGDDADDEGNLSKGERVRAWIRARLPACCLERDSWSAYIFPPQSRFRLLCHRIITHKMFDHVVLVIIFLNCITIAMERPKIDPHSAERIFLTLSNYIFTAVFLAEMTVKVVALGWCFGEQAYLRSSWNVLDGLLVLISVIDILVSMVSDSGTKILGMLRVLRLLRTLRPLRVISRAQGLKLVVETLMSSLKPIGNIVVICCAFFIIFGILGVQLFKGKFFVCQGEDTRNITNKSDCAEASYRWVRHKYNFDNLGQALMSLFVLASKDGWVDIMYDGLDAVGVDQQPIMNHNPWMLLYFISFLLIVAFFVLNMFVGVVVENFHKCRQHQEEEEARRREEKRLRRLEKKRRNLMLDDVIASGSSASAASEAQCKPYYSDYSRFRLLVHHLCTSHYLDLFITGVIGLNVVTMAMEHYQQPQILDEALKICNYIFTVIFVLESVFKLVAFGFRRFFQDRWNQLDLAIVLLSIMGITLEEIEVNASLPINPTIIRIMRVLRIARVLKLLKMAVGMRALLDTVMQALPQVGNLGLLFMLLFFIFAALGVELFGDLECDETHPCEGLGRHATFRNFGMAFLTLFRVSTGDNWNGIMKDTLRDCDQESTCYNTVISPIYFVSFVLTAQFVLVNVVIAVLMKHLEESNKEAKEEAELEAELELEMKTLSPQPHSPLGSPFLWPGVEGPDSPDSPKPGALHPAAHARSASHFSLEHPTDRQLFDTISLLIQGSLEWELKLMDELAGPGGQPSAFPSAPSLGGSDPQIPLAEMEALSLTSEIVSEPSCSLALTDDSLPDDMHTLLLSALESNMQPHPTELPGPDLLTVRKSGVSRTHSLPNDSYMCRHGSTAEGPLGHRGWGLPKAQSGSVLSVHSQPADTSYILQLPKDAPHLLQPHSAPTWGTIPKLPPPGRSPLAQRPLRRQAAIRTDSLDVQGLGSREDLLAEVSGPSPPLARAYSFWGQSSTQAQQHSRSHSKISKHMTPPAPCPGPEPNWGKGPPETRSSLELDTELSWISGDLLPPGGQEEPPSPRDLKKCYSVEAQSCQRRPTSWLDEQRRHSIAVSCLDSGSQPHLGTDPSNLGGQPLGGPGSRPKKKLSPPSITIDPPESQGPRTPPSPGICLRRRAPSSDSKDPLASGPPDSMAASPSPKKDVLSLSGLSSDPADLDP
Kind of assay: Human Cav3.1 calcium channel patch clamp assay (SyncroPatch 384PE; single point and IC50, voltage dependent block). Format: cell-based. Particulars: for % Inhibition (Single Point Data): patch clamp. How it is done: Certain compounds (as indicated) were tested for Human Cav3.1 calcium channel activity via a patch clamp assay as disclosed herein.
Pulse generation and data collection were performed with PatchController384 V1.3.0 and DataController384 V1.2.1 (Nanion Technologies). Offline analysis was performed using Excel and Graphpad Prism (V 8.4.2) with complete data files uploaded to Dotmatics. The access resistance and apparent membrane capacitance were estimated using built-in protocols. Current was recorded in whole cell configuration from a population of cells. The cells were lifted, triturated, and resuspended at 800,000 cells/ml. The cells were allowed to recover in the cell hotel prior to experimentation. Currents were recorded at room temperature. The external solution contained the following (in mM): NaCl 80, NMDG 60, KCl 4, MgCl2 1, CaCl2 6, glucose 5 and HEPES 10 (pH=7.4, Osmolarity˜300 mOsm). The extracellular solution was used as the wash, reference and compound delivery solution.
The compound plate was created at 2× concentrated in the extracellular solution. The compound was diluted to 1:2 when added to the recording well. The amount of DMSO in the extracellular solution was held constant at the level used for the highest tested concentration. For the voltage clamp experiments on Cav3.1, data were sampled at 10 KHz. After establishment of the seal and the passage in the whole cell configuration, the cells were held at −120 mV. Cav3.1 current was evoked using a 100 ms step to −20 mV (to measure resting state block), followed by a 1600 ms step to −65 mV and a second 100 ms step to −20 mV (to measure voltage dependent block). The voltage protocol was applied every 15 seconds in the absence and in the presence of the compounds under investigation. […] Current amplitude (pA) was measured in the peak 1 and 2. The average of last 3 sweeps of each liquid period (vehicle, compound under investigation, full block) was calculated. Nickel-sensitive current was used to calculate the % of inhibition in the presence of the compound under investigation.

Setting [1] is: Testing Conc 1.25, HEK-293 natClytin/TASK1+Cav3.1 cell line.
[2] abbreviates: voltage dependent block (VDB), HEK-293 natClytin/TASK1+Cav3.1 cell line, read-out: Cav3.1 IC50.

As for `CC1(NC(=O)CN2C3CCC2CN(Cc2nc4c(Cl)cc(F)cc4[nH]2)C3)COC1` [Compound 82], under setting [1], the “% Inhibition (Single Point Data)” value came to 98.209%. With `CC(C)(C)NC(=O)CN1C2CCC1CN(Cc1nc3cc(F)cc(Cl)c3o1)C2` [Compound 193], under setting [1], the “% Inhibition (Single Point Data)” value is listed as 23.525%. Further, the IC50 under setting [2] is 2.2 µM. As for `CC(C)(C)NC(=O)CN1C2CC1CN(CC(=O)Nc1cccc(C(F)F)c1)C2` [Compound 15], the “% Inhibition (Single Point Data)” value under setting [1] is 73.866%. Also, under setting [2], the IC50 was found to be 0.308 µM.

With `CC(C)(C)NC(=O)CN1C2CCC1CN(Cc1nc3c(Cl)cc(F)cc3[nH]1)CC2` (stereo not shown) [Compound 65], the “% Inhibition (Single Point Data)” value under setting [1] is reported as 82.104%. For the same compound, under setting [2], the IC50 came out at 0.708 µM.

Take `CC(C)(NC(=O)CN1CC2CC1CN2Cc1nc2c(Cl)cc(F)cc2[nH]1)C(F)(F)F` (stereo not shown) [Compound 125]: the “% Inhibition (Single Point Data)” value under setting [1] came to 95.552%. Moreover, under setting [2], the IC50 stood at 0.156 µM. The corresponding values for `COc1ccc(F)c(NC(=O)CN2CC3CC(C2)N3CC(=O)NC(C)(C)C)c1` [Compound 222] are 52.3% and 1.1 µM. `Fc1ccc(Cl)c2nc(CN3CCN(CC4(F)CCC(F)(F)CC4)CC3)[nH]c12` [Compound 155]: the “% Inhibition (Single Point Data)” value under setting [1] was found to be 80.753%. Further, under setting [2], the 50% inhibitory concentration (IC50) was determined as 0.37 µM. In the same order, the values of `OC1(CN2CCN(Cc3nc4c(Cl)ccc(F)c4[nH]3)CC2)CCC(F)(F)CC1` [Compound 159] are 76.669% and 0.25 µM. As to `CC(C)(C)NC(=O)CN1C2CC1CN(CC(=O)Nc1cc(F)cc(C#N)c1)C2` [Compound 220], the “% Inhibition (Single Point Data)” value under setting [1] came to 80.621%. Besides, the IC50 under setting [2] turned out to be 0.671 µM. Turning to `CC(C)(C)NC(=O)CN1C[C@H]2COC[C@@H](C1)[C@H]2CC(=O)Nc1cc(F)cc(Cl)c1` [Compound 371], the half-inhibitory concentration (IC50) under setting [2] came out at 1.96 µM. Turning to `CC(C)(C)NC(=O)CN1C2CCC1CN(Cc1nc(-c3ccccc3)c[nH]1)C2` [Compound 196], the “% Inhibition (Single Point Data)” value under setting [1] was 83.677%. As for `CC(C)(C)NC(=O)CN1CC2CCC1CN2CC(=O)NC12CC3CC(CC(C3)C1)C2` (stereo not shown) [Compound 8], the “% Inhibition (Single Point Data)” value under setting [1] amounted to 76.573%. Moreover, under setting [2], the 50% inhibitory concentration (IC50) was 0.609 µM. Turning to `CC(C)(C)NC(=O)CN1C[C@H]2CC[C@@H]1CN2CC(=O)Nc1cc(F)cc(Cl)c1` [Compound 268], the “% Inhibition (Single Point Data)” value under setting [1] is on record as 85.508%. In addition, the concentration for half-maximal inhibition (IC50) under setting [2] worked out at 0.356 µM. `CC(C)(NC(=O)CN1CCN(CC(=O)Nc2cc(F)cc(OC(F)F)c2)CC1)C(F)(F)F` [Compound 53]: the “% Inhibition (Single Point Data)” value under setting [1] is reported as 57.147%. For the same compound, the IC50 under setting [2] was found to be 1.01 µM. Consider `CN(C(=O)CN1C2CCC1CN(Cc1nc3c(Cl)cc(F)cc3[nH]1)C2)C(C)(C)C(=O)O` [Compound 87], for which, under setting [1], the “% Inhibition (Single Point Data)” value worked out at 7.971%. On to `CC(C)(C)NC(=O)CN1C2CC1CN(CC(=O)NCC13CC4CC(CC(C4)C1)C3)C2` [Compound 306], for which, under setting [1], the “% Inhibition (Single Point Data)” value came to 34.765%. Further, under setting [2], the IC50 came out at 1.99 µM. Consider `COc1cc(F)cc2[nH]c(CN3CC4CC(C3)N4CC(=O)NC(C)(C)C)nc12` [Compound 164], for which, under setting [1], the “% Inhibition (Single Point Data)” value worked out at 84.695%. With `O=C(CN1C[C@@H]2C[C@H]1CN2CC(=O)NC1(C(F)(F)F)CC1)Nc1cc(F)c(F)c(OC(F)F)c1` [Compound 359], under setting [2], the IC50 stood at 0.176 µM. `Cc1cc(Cl)cc(NC(=O)CN2C[C@@H]3C[C@H]2CN3CC(=O)NC2(C(F)(F)F)CC2)c1` [Compound 327]: the “% Inhibition (Single Point Data)” value under setting [1] came out at 87.352%. The half-inhibitory concentration (IC50) under setting [2] worked out at 0.289 µM. Take `O=C(CN1C2CC1CN(Cc1nc3c(Cl)cc(F)cc3[nH]1)C2)NC1(C(F)(F)F)COC1` [Compound 182]: the IC50 is 0.0648 µM. In addition, under setting [1], the “% Inhibition (Single Point Data)” value was found to be 92.993%.

For `CC(C(=O)Nc1ccc(F)c(Cl)c1)N1C[C@@H]2C[C@H]1CN2CC(=O)NC(C)(C)C` (stereo partly shown) [Compound 264], the “% Inhibition (Single Point Data)” value under setting [1] stood at 85.955%. The IC50 under setting [2] is 0.242 µM.

Take `CC(C)(C)NC(=O)CN1CCN(Cc2cnc(-c3ccccc3)[nH]2)CC1` [Compound 43]: the “% Inhibition (Single Point Data)” value (Testing Conc 1, HEK-293 natClytin/TASK1+Cav3.1 cell line) came to 29.301%. On to `CC(C)(C)NC(=O)CN1C[C@@H]2C[C@H]1CN2CC(=O)Nc1cc(Cl)cc(Cl)c1` [Compound 272], for which the “% Inhibition (Single Point Data)” value under setting [1] is 98.544%. In addition, the half-maximal inhibitory concentration (IC50) under setting [2] was determined as 0.0712 µM. In the case of `Cc1cc(CNC(=O)CN2CC3CC(C2)N3CC(=O)NC(C)(C)C)nn1-c1ccccc1` [Compound 273], under setting [1], the “% Inhibition (Single Point Data)” value is 6.1482%. In the case of `CC(C)(C)NC(=O)CN1C2CC1CN(CC(=O)Nc1ccc(F)c(C(F)F)c1)C2` [Compound 250], the “% Inhibition (Single Point Data)” value under setting [1] was found to be 86.981%. Under setting [2], the concentration for half-maximal inhibition (IC50) came out at 0.377 µM. Take `Cc1cccc2[nH]c(CN3CC4CCC(C3)N4CC(=O)NC(C)(C)C)nc12` [Compound 194]: the “% Inhibition (Single Point Data)” value under setting [1] was determined as 97.438%.

On to `N#CC1(CN2C3CC2CN(CC(=O)Nc2cc(F)cc(Cl)c2)C3)CCC(F)(F)CC1` [Compound 52], for which the “% Inhibition (Single Point Data)” value under setting [1] is given as 51.764%. Besides, the half-inhibitory concentration (IC50) under setting [2] was 0.853 µM. For `CC1(NC(=O)CN2C3CC2CN(Cc2nc4c(Cl)ccc(F)c4[nH]2)C3)COC1` [Compound 174], under setting [1], the “% Inhibition (Single Point Data)” value is 75.268%. Regarding `Cc1ccc(F)c2[nH]c(CN3CC4CC(C3)N4CC(=O)NC(C)(C)C(F)(F)F)nc12` [Compound 144], the half-maximal inhibitory concentration (IC50) came out at 0.0745 µM. For the same compound, the “% Inhibition (Single Point Data)” value under setting [1] turned out to be 98.286%. On to `CC(C)(C)NC(=O)CN1C2CC1CN(CC(=O)NC13CC4CC(CC(F)(C4)C1)C3)C2` [Compound 315], for which the “% Inhibition (Single Point Data)” value under setting [1] came out at 72.558%. The 50% inhibitory concentration (IC50) under setting [2] is 0.592 µM. Consider `CC(C)(C)NC(=O)CN1C2CC1CN(CC(=O)Nc1cccc(OC(F)F)c1)C2` [Compound 12], for which the “% Inhibition (Single Point Data)” value under setting [1] is reported as 81.341%. With `CC(C)(C)NC(=O)CN1CC2CCC1CCN2Cc1nc2c(Cl)cc(F)cc2[nH]1` (stereo not shown) [Compound 74], under setting [1], the “% Inhibition (Single Point Data)” value was determined as 72.584%. Moreover, the concentration for half-maximal inhibition (IC50) under setting [2] stood at 0.575 µM.

For `O=C(CN1C[C@H]2C[C@@H]1CN2CC(=O)NC1(C(F)(F)F)CC1)Nc1cc(F)cc(Cl)c1` [Compound 20], the “% Inhibition (Single Point Data)” value under setting [1] was 56.816%. Also, the IC50 under setting [2] was determined as 1.02 µM.

On to `CC1(C(=O)NCCN2C3CC2CN(Cc2nc4c(Cl)cc(F)cc4[nH]2)C3)CCC1` [Compound 137], for which the IC50 was < 0.0782 µM. The “% Inhibition (Single Point Data)” value under setting [1] is reported as 96.095%.

Consider `CC(C)(NC(=O)CN1C2CC1CN(Cc1nc3c(F)ccc(F)c3[nH]1)C2)C(F)(F)F` [Compound 166], for which the “% Inhibition (Single Point Data)” value under setting [1] is on record as 87.157%. Under setting [2], the 50% inhibitory concentration (IC50) was found to be 0.253 µM.

For `CC(C)(C)NC(=O)CN1C[C@H]2C[C@@H]1CN2CC(=O)Nc1ccc(F)c(Cl)c1` [Compound 26], under setting [1], the “% Inhibition (Single Point Data)” value was found to be 57.68%. Under setting [2], the concentration for half-maximal inhibition (IC50) turned out to be 0.827 µM. As for `CC(C)(C)NC(=O)CN1C[C@@H]2C[C@H]1CN2CC(=O)Nc1cc(F)cc(OC(F)F)c1` [Compound 22], under setting [1], the “% Inhibition (Single Point Data)” value was found to be 97.77%. For the same compound, the IC50 under setting [2] is < 0.0782 µM. Take `CC(C)(C)NC(=O)CN1C2CC1CN(c1nc3c(Cl)cc(F)cc3[nH]1)C2` [Compound 209]: the “% Inhibition (Single Point Data)” value under setting [1] came out at 24.65%. Under setting [2], the IC50 was 5.09 µM. With `CC(C)(C)NC(=O)CN1CC2CC1CN2CC(=O)Nc1cc(F)cc(Cl)c1` (stereo not shown) [Compound 130], under setting [1], the “% Inhibition (Single Point Data)” value is 92.618%. Moreover, the IC50 under setting [2] is 0.121 µM.
